Reference: the NIST ThermoML archive (doi:10.1016/j.jct.2006.09.008)

Assay: molar heat capacity at constant pressure; mn = molality of the nth substance listed, in mol/kg
Details: 350 kPa, Liquid

O=[N+]([O-])[O-].O=[N+]([O-])[O-].[Sr+2] [strontium nitrate] + O
molar heat capacity at constant pressure [J/K/mol]
Details	m1 = 0.0499	m1 = 0.1006	m1 = 0.2005	m1 = 0.4995	m1 = 0.7992	m1 = 0.9995	m1 = 1.502	m1 = 2.003	m1 = 3.001
278.15 K	75.4	75.15	74.75	74.1	73.96	74.06	74.66	75.65	77.88
283.15 K	75.27	75.05	74.7	74.14	74.04	74.14	74.76	75.76	77.98
288.15 K	75.18	74.99	74.68	74.19	74.11	74.22	74.84	75.84	78.06
293.15 K	75.13	74.95	74.67	74.24	74.18	74.3	74.92	75.92	78.12
298.15 K	75.1	74.94	74.68	74.29	74.25	74.37	74.99	75.99	78.17
303.15 K	75.08	74.93	74.7	74.34	74.31	74.43	75.05	76.04	78.21
308.15 K	75.08	74.94	74.72	74.39	74.37	74.49	75.1	76.09	78.24
313.15 K	75.09	74.95	74.75	74.44	74.42	74.55	75.15	76.13	78.27
318.15 K	75.11	74.98	74.79	74.49	74.48	74.6	75.2	76.17	78.29
323.15 K	75.14	75.01	74.83	74.55	74.54	74.66	75.25	76.2	78.31
328.15 K	75.17	75.05	74.87	74.6	74.59	74.71	75.29	76.24	78.32
333.15 K	75.21	75.1	74.92	74.66	74.65	74.76	75.33	76.27	78.34
338.15 K	75.26	75.15	74.98	74.72	74.71	74.82	75.37	76.3	78.36
343.15 K	75.32	75.21	75.04	74.78	74.77	74.87	75.41	76.33	78.38
348.15 K	75.39	75.27	75.11	74.85	74.83	74.93	75.46	76.36	78.41
353.15 K	75.46	75.34	75.18	74.91	74.89	74.98	75.5	76.4	78.43
358.15 K	75.54	75.42	75.25	74.98	74.95	75.04	75.55	76.44	78.47
363.15 K	75.62	75.5	75.33	75.06	75.02	75.11	75.6	76.48	78.52
368.15 K	75.71	75.59	75.42	75.14	75.09	75.17	75.65	76.53	78.57
373.15 K	75.81	75.69	75.51	75.22	75.17	75.24	75.71	76.59	78.64
378.15 K	75.92	75.8	75.61	75.31	75.25	75.32	75.78	76.65	78.72
383.15 K	76.04	75.91	75.72	75.4	75.33	75.4	75.85	76.72	78.82
388.15 K	76.16	76.03	75.83	75.5	75.42	75.49	75.93	76.8	78.94
393.15 K	76.3	76.16	75.95	75.61	75.52	75.58	76.02	76.89	79.07
